Data from article PMC4741952, “Small molecule RL71 targets SERCA2 at a novel site in the treatment of human colorectal cancer” (Oncotarget, 2015).

Molecular target: T1, SERCA2 (Homo sapiens, UniProt P16615)
T1 construct: gene ATP2A2; endogenous SERCA2 in SW480 whole-cell lysates
Test: competition by […] free RL71 of the RL71-biotin streptavidin pull-down (LC/MS, anti-SERCA2 western blot); Ca2+-ATPase inhibition in treated SW480 cells
Format: cell-based

T1 sequence (P16615 whole entry): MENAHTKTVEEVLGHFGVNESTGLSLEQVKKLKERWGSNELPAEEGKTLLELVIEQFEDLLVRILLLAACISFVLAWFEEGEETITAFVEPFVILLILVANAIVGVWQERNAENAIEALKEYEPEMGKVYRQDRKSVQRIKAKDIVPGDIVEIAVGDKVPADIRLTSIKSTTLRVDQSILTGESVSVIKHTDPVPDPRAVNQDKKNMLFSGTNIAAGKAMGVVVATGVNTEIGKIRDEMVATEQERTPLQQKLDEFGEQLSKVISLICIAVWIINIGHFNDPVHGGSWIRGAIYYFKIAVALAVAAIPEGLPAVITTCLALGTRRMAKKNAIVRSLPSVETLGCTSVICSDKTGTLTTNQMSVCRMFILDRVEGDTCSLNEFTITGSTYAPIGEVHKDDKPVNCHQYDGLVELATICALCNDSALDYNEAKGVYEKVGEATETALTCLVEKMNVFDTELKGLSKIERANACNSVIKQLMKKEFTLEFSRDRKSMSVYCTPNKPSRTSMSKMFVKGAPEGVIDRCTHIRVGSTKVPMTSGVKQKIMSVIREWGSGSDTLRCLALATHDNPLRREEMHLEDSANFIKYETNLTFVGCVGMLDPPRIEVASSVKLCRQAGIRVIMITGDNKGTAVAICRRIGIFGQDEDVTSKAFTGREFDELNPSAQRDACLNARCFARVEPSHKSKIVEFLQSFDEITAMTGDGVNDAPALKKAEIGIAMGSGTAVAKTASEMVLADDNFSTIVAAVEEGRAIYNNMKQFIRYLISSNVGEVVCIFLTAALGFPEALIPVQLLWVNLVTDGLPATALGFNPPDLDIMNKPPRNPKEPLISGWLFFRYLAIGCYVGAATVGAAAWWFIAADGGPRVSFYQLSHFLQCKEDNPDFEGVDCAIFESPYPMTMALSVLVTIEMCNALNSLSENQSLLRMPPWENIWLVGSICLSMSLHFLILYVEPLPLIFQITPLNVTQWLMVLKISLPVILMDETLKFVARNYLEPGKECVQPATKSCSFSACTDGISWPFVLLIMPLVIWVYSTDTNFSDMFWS

COc1cc(C=C2CN(C)CC(=Cc3cc(OC)c(OC)c(OC)c3)C2=O)cc(OC)c1OC [compound 1, 3,5-bis(3,4,5-trimethoxybenzylidene)-1-methylpiperidine-4-one]
competition by 200 μM free RL71 of the RL71-biotin streptavidin pull-down (LC/MS): The interaction between RL71-biotin and SERCA2 could be competed by RL71.
